Measurements published in PubChem BioAssay AID1259407 (Chemical Carcinogenesis Research Information System (CCRIS), 2018).
Calls of active or inactive are those of the source. How the calls were made is not given here.

Tested on: CCRIS mutagenicity, Ames/micronucleus/aberration tests
Assay: CCRIS mutagenicity studies
[1] = Test System: AMES SALMONELLA TYPHIMURIUM, Strain/Indicator: TA98, Metabolic Activation: NONE, Method: STANDARD PLATE
[2] = Test System: AMES SALMONELLA TYPHIMURIUM, Strain/Indicator: TA98, Metabolic Activation: RAT, LIVER, S-9, AROCLOR 1254, Method: STANDARD PLATE
[3] = Test System: AMES SALMONELLA TYPHIMURIUM, Strain/Indicator: TA100, Metabolic Activation: NONE, Method: STANDARD PLATE
[4] = Test System: AMES SALMONELLA TYPHIMURIUM, Strain/Indicator: TA100, Metabolic Activation: RAT, LIVER, S-9, AROCLOR 1254, Method: STANDARD PLATE
[5] = Test System: AMES SALMONELLA TYPHIMURIUM, Strain/Indicator: TA102, Metabolic Activation: NONE, Method: STANDARD PLATE
[6] = Test System: AMES SALMONELLA TYPHIMURIUM, Strain/Indicator: TA100, Metabolic Activation: HAMSTER, LIVER, S-9, PCB, Method: PREINCUBATION
[7] = Test System: AMES SALMONELLA TYPHIMURIUM, Strain/Indicator: TA100, Metabolic Activation: RAT, LIVER, S-9, PCB, Method: PREINCUBATION
[8] = Test System: UDS HAMSTER HEPATOCYTES, Strain/Indicator: THY INCORP, Metabolic Activation: NONE, Method: AUTORADIOGRAPHY
[9] = Test System: UDS MOUSE HEPATOCYTES, Strain/Indicator: THY INCORP, Metabolic Activation: NONE, Method: AUTORADIOGRAPHY
[10] = Test System: UDS RAT HEPATOCYTES, Strain/Indicator: THY INCORP, Metabolic Activation: NONE, Method: AUTORADIOGRAPHY

Question: Which results are given for `COc1ccc(CN(CCN(C)C)c2ccccn2)cc1`?
Answer: mutagenic call (Test System: AMES SALMONELLA TYPHIMURIUM, Strain/Indicator: TA97, Metabolic Activation: NONE, Method: STANDARD PLATE): inactive; negative; mutagenic call (Test System: AMES SALMONELLA TYPHIMURIUM, Strain/Indicator: TA97, Metabolic Activation: RAT, LIVER, S-9, AROCLOR 1254, Method: STANDARD PLATE): inactive; negative; mutagenic call (Test System: AMES SALMONELLA TYPHIMURIUM, Strain/Indicator: TA98, Metabolic Activation: HAMSTER, LIVER, S-9, AROCLOR 1254 (10%), Method: PREINCUBATION): inactive; negative; mutagenic call (Test System: AMES SALMONELLA TYPHIMURIUM, Strain/Indicator: TA98, Metabolic Activation: NONE, Method: PREINCUBATION): inactive; negative; mutagenic call [1]: inactive; negative; mutagenic call (Test System: AMES SALMONELLA TYPHIMURIUM, Strain/Indicator: TA98, Metabolic Activation: RAT, LIVER, S-9, AROCLOR 1254 (10%), Method: PREINCUBATION): inactive; negative; mutagenic call [2]: inactive; negative; mutagenic call (Test System: AMES SALMONELLA TYPHIMURIUM, Strain/Indicator: TA100, Metabolic Activation: HAMSTER, LIVER, S-9, AROCLOR 1254 (10%), Method: PREINCUBATION): inactive; negative; mutagenic call (Test System: AMES SALMONELLA TYPHIMURIUM, Strain/Indicator: TA100, Metabolic Activation: NONE, Method: PREINCUBATION): inactive; negative; mutagenic call [3]: inactive; negative; mutagenic call (Test System: AMES SALMONELLA TYPHIMURIUM, Strain/Indicator: TA100, Metabolic Activation: RAT, LIVER, S-9, AROCLOR 1254 (10%), Method: PREINCUBATION): inactive; negative; mutagenic call [4]: inactive; negative; mutagenic call [5]: inactive; negative; mutagenic call (Test System: AMES SALMONELLA TYPHIMURIUM, Strain/Indicator: TA102, Metabolic Activation: RAT, LIVER, S-9, AROCLOR 1254, Method: STANDARD PLATE): inactive; negative; mutagenic call (Test System: AMES SALMONELLA TYPHIMURIUM, Strain/Indicator: TA1535, Metabolic Activation: HAMSTER, LIVER, S-9, AROCLOR 1254 (10%), Method: PREINCUBATION): inactive; negative; mutagenic call (Test System: AMES SALMONELLA TYPHIMURIUM, Strain/Indicator: TA1535, Metabolic Activation: NONE, Method: PREINCUBATION): inactive; negative; mutagenic call (Test System: AMES SALMONELLA TYPHIMURIUM, Strain/Indicator: TA1535, Metabolic Activation: RAT, LIVER, S-9, AROCLOR 1254 (10%), Method: PREINCUBATION): inactive; negative; mutagenic call (Test System: AMES SALMONELLA TYPHIMURIUM, Strain/Indicator: TA1537, Metabolic Activation: HAMSTER, LIVER, S-9, AROCLOR 1254 (10%), Method: PREINCUBATION): inactive; negative; mutagenic call (Test System: AMES SALMONELLA TYPHIMURIUM, Strain/Indicator: TA1537, Metabolic Activation: NONE, Method: PREINCUBATION): inactive; negative; mutagenic call (Test System: AMES SALMONELLA TYPHIMURIUM, Strain/Indicator: TA1537, Metabolic Activation: RAT, LIVER, S-9, AROCLOR 1254 (10%), Method: PREINCUBATION): inactive; negative; mutagenic call (Test System: MOUSE LYMPHOMA, Strain/Indicator: L5178Y (TK+/TK-), Metabolic Activation: NONE, Method: SUSPENSION/PLATE): inactive; negative; mutagenic call (Test System: MOUSE LYMPHOMA, Strain/Indicator: L5178Y (TK+/TK-), Metabolic Activation: RAT, LIVER, S-9, AROCLOR 1242 AND 1254 (2:1 MIXTURE), Method: SUSPENSION/PLATE): active; positive

Question: How did the mutagenic call [6] turn out when `C/C=C1/C[C@@H](C)[C@@](C)(O)C(=O)OC/C2=C/CN(C)CC[C@@H](OC1=O)C2=O` was run?
Answer: active; positive

Question: What about the mutagenic call [7] of the same compound?
Answer: active; positive

Question: And the mutagenic call [8]?
Answer: active; positive

Question: What about the mutagenic call [9] of the same compound?
Answer: active; positive

Question: And the mutagenic call [10]?
Answer: active; positive

Question: What does the source list for `CN(C)c1ccc(N=Nc2ccc(N(C)C)cc2)cc1`?
Answer: mutagenic call (Test System: AMES SALMONELLA TYPHIMURIUM, Strain/Indicator: TA98, Metabolic Activation: RAT, LIVER, S-9, POLYCHLORINATED BIPHENYLS, Method: PREINCUBATION): inactive; negative; mutagenic call (Test System: AMES SALMONELLA TYPHIMURIUM, Strain/Indicator: TA100, Metabolic Activation: RAT, LIVER, S-9, POLYCHLORINATED BIPHENYLS, Method: PREINCUBATION): inactive; negative

Question: What does the source list for `C[C@H]1C(=O)O[C@@H]2CCN3CC=C(COC(=O)[C@](C)(O)[C@]1(C)O)[C@H]23`?
Answer: mutagenic call [6]: inactive; negative; mutagenic call [7]: inactive; negative; mutagenic call (Test System: AMES SALMONELLA TYPHIMURIUM, Strain/Indicator: TA100, Metabolic Activation: RAT, LIVER, S-9, SODIUM PHENOBARBITAL AND BETA-NAPHTHOFLAVONE, Method: PREINCUBATION): inactive; negative; mutagenic call (Test System: MOUSE LYMPHOMA, Strain/Indicator: L5178Y (TK+/TK-), Metabolic Activation: NONE, Method: MICROWELL): active; positive; mutagenic call (Test System: MOUSE LYMPHOMA, Strain/Indicator: L5178Y (TK+/TK-), Metabolic Activation: S-9, Method: MICROWELL): active; positive; mutagenic call [8]: active; positive; mutagenic call [9]: active; positive; mutagenic call [10]: active; positive

Question: What does the source list for `CNCC(O)c1ccc(O)c(O)c1` (configuration not stated)?
Answer: mutagenic call [5]: inactive; negative; mutagenic call (Test System: AMES SALMONELLA TYPHIMURIUM, Strain/Indicator: TA2638, Metabolic Activation: NONE, Method: STANDARD PLATE): inactive; negative; mutagenic call (Test System: E. COLI, Strain/Indicator: WP2 (PKM101), Metabolic Activation: NONE, Method: STANDARD PLATE): inactive; negative; mutagenic call (Test System: E. COLI, Strain/Indicator: WP2 UVRA (PKM101), Metabolic Activation: NONE, Method: STANDARD PLATE): inactive; negative

Question: For `CC(C)(C)C1=CC(=O)C=CC1=O`, which mutagenic call (Test System: AMES SALMONELLA TYPHIMURIUM, Strain/Indicator: TA97, Metabolic Activation: NONE, Method: PREINCUBATION) is on record?
Answer: inactive; negative

Question: What about the mutagenic call (Test System: AMES SALMONELLA TYPHIMURIUM, Strain/Indicator: TA97, Metabolic Activation: RAT, LIVER, S-9, PCB, Method: PREINCUBATION) of the same compound?
Answer: inactive; negative

Question: And the mutagenic call [1]?
Answer: inactive; negative

Question: And the mutagenic call (Test System: AMES SALMONELLA TYPHIMURIUM, Strain/Indicator: TA98, Metabolic Activation: RAT, LIVER, S-9, AROCLOR 1254, Method: PREINCUBATION)?
Answer: inactive; negative

Question: And the mutagenic call [2]?
Answer: inactive; negative

Question: What about the mutagenic call (Test System: AMES SALMONELLA TYPHIMURIUM, Strain/Indicator: TA98, Metabolic Activation: RAT, LIVER, S-9, PCB, Method: PREINCUBATION) of the same compound?
Answer: inactive; negative

Question: What about the mutagenic call [3] of the same compound?
Answer: inactive; negative

Question: What about the mutagenic call (Test System: AMES SALMONELLA TYPHIMURIUM, Strain/Indicator: TA100, Metabolic Activation: RAT, LIVER, S-9, AROCLOR 1254, Method: PREINCUBATION) of the same compound?
Answer: inactive; negative

Question: And the mutagenic call [4]?
Answer: inactive; negative

Question: What about the mutagenic call [7] of the same compound?
Answer: inactive; negative

Question: What about the mutagenic call (Test System: AMES SALMONELLA TYPHIMURIUM, Strain/Indicator: TA102, Metabolic Activation: NONE, Method: PREINCUBATION) of the same compound?
Answer: inactive; negative

Question: And the mutagenic call (Test System: AMES SALMONELLA TYPHIMURIUM, Strain/Indicator: TA102, Metabolic Activation: RAT, LIVER, S-9, PCB, Method: PREINCUBATION)?
Answer: inactive; negative

Question: And the mutagenic call (Test System: CHINESE HAMSTER V-79, Strain/Indicator: V-79 (HGPRT)/6-THIOGUANINE, Metabolic Activation: NONE)?
Answer: inactive; negative

Question: What about the mutagenic call (Test System: CHINESE HAMSTER V-79, Strain/Indicator: V-79 (HGPRT)/6-THIOGUANINE, Metabolic Activation: RAT, LIVER, HEPATOCYTES) of the same compound?
Answer: inactive; negative

Question: For `COc1cc(N=Nc2ccc(N)cc2)c(C)cc1N=Nc1c(S(=O)(=O)O)cc2ccc(N)cc2c1O`, which mutagenic call [1] is on record?
Answer: inactive; negative

Question: What about the mutagenic call [2] of the same compound?
Answer: active; positive

Question: What about the mutagenic call [3] of the same compound?
Answer: inactive; negative

Question: And the mutagenic call [4]?
Answer: active; positive

Question: And the mutagenic call (Test System: AMES SALMONELLA TYPHIMURIUM, Strain/Indicator: TA1538, Metabolic Activation: NONE, Method: STANDARD PLATE)?
Answer: inactive; negative

Question: And the mutagenic call (Test System: AMES SALMONELLA TYPHIMURIUM, Strain/Indicator: TA1538, Metabolic Activation: RAT, LIVER, S-9, AROCLOR 1254, Method: STANDARD PLATE)?
Answer: active; positive

Question: How did the mutagenic call (Test System: CHINESE HAMSTER V-79, Strain/Indicator: V-79/6-THIOGUANINE, Metabolic Activation: NONE, Method: REPLATING) turn out when `CN(N)c1ccn([C@@H]2O[C@H](CO)[C@@H](O)[C@H]2O)c(=O)n1` was run?
Answer: inactive; negative
